Laboratory results from ChEMBL document CHEMBL1137385, “Macrocyclic inhibitors of beta-secretase: functional activity in an animal model” (J Med Chem, 2006).

What was measured:
Beta-secretase 1 [1] = target: T1, Beta-secretase 1 (Homo sapiens, UniProt P56817); experiment: Inhibition of BACE1 at pH 4.5
Mus musculus [2] = experiment: Drug level in brain of C57/BL6 APP-YAC mouse model at 100 mg/kg, iv; assay type: ADME, organism-based, C57Bl/6; set-up: dose 100 mg/kg, route intravenous; settings: in vivo, read-out: Drug uptake
Mus musculus [3] = experiment: Ratio of drug level in brain against plasma in C57/BL6 APP-YAC mouse model at 100 mg/kg, iv; assay type: ADME, organism-based, C57Bl/6; set-up: dose 100 mg/kg, route intravenous
[4] = Apparent permeability in porcine LLC-PK1 cells; assay type: ADME, cell-based, Sus scrofa; settings: pig
Beta-secretase 1 [5] = target: T1, Beta-secretase 1; experiment: Inhibition of BACE1 in HEK293T cells; assay type: cell-based, HEK-293T

T1 sequence (P56817 whole entry): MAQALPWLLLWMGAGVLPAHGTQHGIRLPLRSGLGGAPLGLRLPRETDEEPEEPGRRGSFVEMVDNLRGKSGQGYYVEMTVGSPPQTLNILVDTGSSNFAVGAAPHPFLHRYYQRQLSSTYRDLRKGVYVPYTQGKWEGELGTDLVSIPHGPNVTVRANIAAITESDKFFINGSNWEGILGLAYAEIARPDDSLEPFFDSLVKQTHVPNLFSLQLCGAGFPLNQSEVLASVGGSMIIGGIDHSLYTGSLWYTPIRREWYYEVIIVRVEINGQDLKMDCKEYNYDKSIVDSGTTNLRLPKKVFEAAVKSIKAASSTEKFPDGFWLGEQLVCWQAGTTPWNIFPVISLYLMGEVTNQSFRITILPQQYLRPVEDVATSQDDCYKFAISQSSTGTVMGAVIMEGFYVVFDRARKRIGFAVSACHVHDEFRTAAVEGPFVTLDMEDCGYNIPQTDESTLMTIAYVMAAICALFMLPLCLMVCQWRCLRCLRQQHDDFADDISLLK

Question: With `CNC(=O)c1cc(C(=O)NC(CO)Cc2cccc(OC)c2)cc(N(C)S(C)(=O)=O)c1` (stereo not drawn) as the compound, how does the IC50 (Beta-secretase 1 [1]) read?
Answer: The IC50 was over 100000 nM.

Question: What does the source list for `CCCC[C@H](NC[C@@H]1Cc2cccc(c2)CCCCc2cc(cc(N(CCC)S(C)(=O)=O)c2)C(=O)N1)C(=O)NCC(C)C`?
Answer: concentration (Mus musculus [2]): 1100 nM; BPR (Mus musculus [3]): 20%; IC50 (Beta-secretase 1 [1]): 4 nM; Papp [4]: 13 ×10⁻⁶ cm/s; IC50 (Beta-secretase 1 [5]): 76 nM

Question: For `CC[C@H](NCC1Cc2cccc(c2)CCCCCc2cc(cc(N(C)S(C)(=O)=O)c2)C(=O)N1)C(=O)NCC(C)C` (stereo partly drawn), which IC50 (Beta-secretase 1 [1]) is on record?
Answer: The IC50 was 1100 nM.

Question: With `CC[C@H](NCC1Cc2cccc(c2)OCCNC(=O)c2cc(cc(N(C)S(C)(=O)=O)c2)C(=O)N1)C(=O)NCC(C)C` (stereo partly drawn) as the compound, how does the IC50 (Beta-secretase 1 [1]) read?
Answer: Its IC50 is 32 nM.

Question: And the Papp [4]?
Answer: The Papp was 0.5 ×10⁻⁶ cm/s.

Question: And the IC50 (Beta-secretase 1 [5])?
Answer: Its IC50 is 5400 nM.

Question: What does the source list for `CC[C@H](NCC1Cc2cccc(c2)CCCCc2cc(cc(N(C)S(C)(=O)=O)c2)C(=O)N1)C(=O)NCC(C)C` (stereo partly drawn)?
Answer: IC50 (Beta-secretase 1 [1]): 90 nM; Papp [4]: 19 ×10⁻⁶ cm/s; IC50 (Beta-secretase 1 [5]): 1140 nM
